Results taken from patent US9458137B2, “Substituted indol-5-ol derivatives and their therapeutical applications” (NantBioScience, Inc., priority 2012, dated 2016).

Assays:
Experiment in all cases: Kinase panel activity
Type in all cases: biochemical
Settings in all cases: 0.1 μM, ATP Km
AMPKα1(h) = AMPKα1(h) (Homo sapiens, UniProt Q13131)
Description: (§1) The effect of NTW-3475 on kinase activity was tested for a wide range of kinases and is shown in Table 2: Summary Sheet, Activity % ATP Concentration: Km

Ab1(h) = Ab1(h) (Homo sapiens, UniProt P00519)
Description: as §1

Bmx(h) = Bmx(h) (Homo sapiens, UniProt P51813)
Sequence of Bmx(h) (P51813 whole entry): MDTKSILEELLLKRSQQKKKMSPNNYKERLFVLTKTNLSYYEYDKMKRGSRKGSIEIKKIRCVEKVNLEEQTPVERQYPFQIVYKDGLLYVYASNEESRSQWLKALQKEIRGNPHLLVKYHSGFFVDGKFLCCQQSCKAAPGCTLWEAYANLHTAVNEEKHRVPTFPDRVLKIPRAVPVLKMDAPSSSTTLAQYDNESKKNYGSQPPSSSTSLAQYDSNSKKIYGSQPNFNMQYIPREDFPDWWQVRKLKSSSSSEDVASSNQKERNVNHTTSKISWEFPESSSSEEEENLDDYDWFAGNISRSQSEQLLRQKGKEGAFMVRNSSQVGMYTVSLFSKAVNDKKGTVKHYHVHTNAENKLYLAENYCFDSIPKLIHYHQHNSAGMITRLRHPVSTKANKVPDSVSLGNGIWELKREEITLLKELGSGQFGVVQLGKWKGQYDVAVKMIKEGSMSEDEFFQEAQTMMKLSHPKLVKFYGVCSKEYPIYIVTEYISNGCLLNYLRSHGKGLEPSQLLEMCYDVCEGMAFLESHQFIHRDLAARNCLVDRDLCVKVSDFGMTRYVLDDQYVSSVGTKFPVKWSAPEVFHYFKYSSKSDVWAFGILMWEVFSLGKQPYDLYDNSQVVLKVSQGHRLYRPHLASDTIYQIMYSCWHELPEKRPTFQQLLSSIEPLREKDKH
Description: as §1

CDK2/cyclinA(h) = CDK2/cyclinA(h) (Homo sapiens, UniProt P24941)
Description: as §1

CHK2(R145W)(h) = CHK2(R145W)(h) (Homo sapiens, UniProt O96017, R145W)
Description: as §1

CK1γ2(h) = CK1γ2(h) (Homo sapiens, UniProt P78368)
Description: as §1

CK1γ3(h) = CK1γ3(h) (Homo sapiens, UniProt Q9Y6M4)
Description: as §1

CLK2(h) = CLK2(h) (Homo sapiens, UniProt P49760)
Description: as §1

CLK3(h) = CLK3(h) (Homo sapiens, UniProt P49761)
Description: as §1

CaMKI(h) = CaMKI(h) (Homo sapiens, UniProt Q14012)
Description: as §1

CaMKIIγ(h) = CaMKIIγ(h) (Homo sapiens, UniProt Q13555)
Description: as §1

DAPK2(h) = DAPK2(h) (Homo sapiens, UniProt Q9UIK4)
Description: as §1

EphA7(h) = molecular target: T1, EphA7(h) (Homo sapiens, UniProt Q15375)
T1 construct: purchased Millipore (KinaseProfiler service)
Description: as §1

EphA8(h) = molecular target: T2, EphA8(h) (Homo sapiens, UniProt P29322)
T2 construct: purchased Millipore (KinaseProfiler service)
Description: as §1

ErbB4(h) = molecular target: T3, ErbB4(h) (Homo sapiens, UniProt Q15303)
T3 construct: purchased Millipore (KinaseProfiler service)
Description: as §1

FGFR2(N549H)(h) = FGFR2(N549H)(h) (Homo sapiens, UniProt P21802, N549H)
Description: as §1

Fer(h) = molecular target: T4, Fer(h) (Homo sapiens, UniProt P16591)
T4 construct: purchased Millipore (KinaseProfiler service)
Description: as §1

Fes(h) = molecular target: T5, Fes(h) (Homo sapiens, UniProt P07332)
T5 construct: purchased Millipore (KinaseProfiler service)
Description: as §1

Fms(Y969C)(h) = Fms(Y969C)(h) (Homo sapiens, UniProt P07333, Y969C)
Description: as §1

HIPK2(h) = HIPK2(h) (Homo sapiens, UniProt Q9H2X6)
Sequence of HIPK2(h) (Q9H2X6 whole entry): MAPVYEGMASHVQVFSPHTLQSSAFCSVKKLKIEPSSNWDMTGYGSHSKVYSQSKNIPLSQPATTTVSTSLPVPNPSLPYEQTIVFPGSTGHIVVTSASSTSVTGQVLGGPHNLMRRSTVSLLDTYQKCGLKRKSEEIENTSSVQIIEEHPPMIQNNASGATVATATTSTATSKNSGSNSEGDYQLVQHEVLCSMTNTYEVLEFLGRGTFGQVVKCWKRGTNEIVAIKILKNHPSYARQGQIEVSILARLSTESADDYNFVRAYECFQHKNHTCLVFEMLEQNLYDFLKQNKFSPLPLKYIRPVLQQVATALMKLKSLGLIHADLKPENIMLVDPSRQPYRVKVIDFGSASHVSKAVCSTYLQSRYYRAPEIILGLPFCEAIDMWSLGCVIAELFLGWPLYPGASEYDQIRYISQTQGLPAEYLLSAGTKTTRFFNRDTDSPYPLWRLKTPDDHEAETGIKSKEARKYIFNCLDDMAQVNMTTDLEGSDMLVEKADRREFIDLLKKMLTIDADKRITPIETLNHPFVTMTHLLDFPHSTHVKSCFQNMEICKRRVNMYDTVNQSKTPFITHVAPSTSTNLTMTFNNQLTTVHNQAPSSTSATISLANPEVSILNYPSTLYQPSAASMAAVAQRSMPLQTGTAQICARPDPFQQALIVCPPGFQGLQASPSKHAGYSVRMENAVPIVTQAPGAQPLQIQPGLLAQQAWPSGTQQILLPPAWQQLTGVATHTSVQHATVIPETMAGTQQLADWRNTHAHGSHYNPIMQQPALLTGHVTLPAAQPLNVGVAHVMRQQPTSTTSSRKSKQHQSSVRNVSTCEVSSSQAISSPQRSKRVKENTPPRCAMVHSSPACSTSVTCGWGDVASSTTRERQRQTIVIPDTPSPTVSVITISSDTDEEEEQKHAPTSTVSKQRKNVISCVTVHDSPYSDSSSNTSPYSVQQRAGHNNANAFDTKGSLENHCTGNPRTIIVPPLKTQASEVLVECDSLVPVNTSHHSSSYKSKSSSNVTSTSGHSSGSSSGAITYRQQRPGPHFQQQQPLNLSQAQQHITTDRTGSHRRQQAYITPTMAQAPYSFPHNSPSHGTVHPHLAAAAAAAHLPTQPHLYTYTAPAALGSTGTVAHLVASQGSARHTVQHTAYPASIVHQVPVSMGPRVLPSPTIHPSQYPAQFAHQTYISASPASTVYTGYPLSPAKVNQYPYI
Description: as §1

JAK3(h) = JAK3(h) (Homo sapiens, UniProt P52333)
Description: as §1

MEK1(h) = molecular target: T6, MEK1(h) (Homo sapiens, UniProt Q02750)
T6 construct: purchased Millipore (KinaseProfiler service)
Description: as §1

MINK(h) = molecular target: T7, MINK(h) (Homo sapiens, UniProt Q8N4C8)
T7 construct: purchased Millipore (KinaseProfiler service)
Description: as §1

PAK4(h) = PAK4(h) (Homo sapiens, UniProt O96013)
Description: as §1

PDGFRα(h) = PDGFRα(h) (Homo sapiens, UniProt P16234)
Sequence of PDGFRα(h) (P16234 24-1089): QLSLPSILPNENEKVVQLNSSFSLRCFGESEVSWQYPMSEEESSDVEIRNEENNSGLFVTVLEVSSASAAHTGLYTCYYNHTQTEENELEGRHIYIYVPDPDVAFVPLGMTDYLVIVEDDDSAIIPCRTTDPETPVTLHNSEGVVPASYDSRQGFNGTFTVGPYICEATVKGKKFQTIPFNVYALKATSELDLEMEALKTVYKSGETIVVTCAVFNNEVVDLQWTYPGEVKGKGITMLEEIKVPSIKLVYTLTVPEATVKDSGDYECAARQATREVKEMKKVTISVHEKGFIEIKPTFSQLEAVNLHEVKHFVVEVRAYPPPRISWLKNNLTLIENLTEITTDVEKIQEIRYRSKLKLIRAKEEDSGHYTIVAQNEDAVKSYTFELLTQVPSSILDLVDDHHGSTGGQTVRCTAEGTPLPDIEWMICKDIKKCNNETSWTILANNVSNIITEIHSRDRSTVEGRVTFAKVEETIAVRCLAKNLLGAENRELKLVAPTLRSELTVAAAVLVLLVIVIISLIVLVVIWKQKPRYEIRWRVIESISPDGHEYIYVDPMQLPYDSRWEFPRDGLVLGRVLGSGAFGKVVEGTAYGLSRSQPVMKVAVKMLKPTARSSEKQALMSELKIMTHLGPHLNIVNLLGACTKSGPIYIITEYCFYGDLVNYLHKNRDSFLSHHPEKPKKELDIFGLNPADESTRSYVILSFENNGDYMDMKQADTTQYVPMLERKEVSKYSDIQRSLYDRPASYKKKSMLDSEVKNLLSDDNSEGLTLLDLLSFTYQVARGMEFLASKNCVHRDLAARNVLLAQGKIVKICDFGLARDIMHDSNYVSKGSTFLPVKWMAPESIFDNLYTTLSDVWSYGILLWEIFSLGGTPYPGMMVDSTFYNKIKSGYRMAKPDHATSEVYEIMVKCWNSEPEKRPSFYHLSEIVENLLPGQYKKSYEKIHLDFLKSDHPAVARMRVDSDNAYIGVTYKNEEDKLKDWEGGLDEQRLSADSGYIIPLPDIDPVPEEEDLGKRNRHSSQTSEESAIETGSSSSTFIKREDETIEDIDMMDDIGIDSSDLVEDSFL
Description: as §1

PKCδ(h) = PKCδ(h) (Homo sapiens, UniProt Q05655)
Description: as §1

PKCζ(h) = PKCζ(h) (Homo sapiens, UniProt Q05513)
Description: as §1

PKCθ(h) = PKCθ(h) (Homo sapiens, UniProt Q04759)
Sequence of PKCθ(h) (Q04759 whole entry): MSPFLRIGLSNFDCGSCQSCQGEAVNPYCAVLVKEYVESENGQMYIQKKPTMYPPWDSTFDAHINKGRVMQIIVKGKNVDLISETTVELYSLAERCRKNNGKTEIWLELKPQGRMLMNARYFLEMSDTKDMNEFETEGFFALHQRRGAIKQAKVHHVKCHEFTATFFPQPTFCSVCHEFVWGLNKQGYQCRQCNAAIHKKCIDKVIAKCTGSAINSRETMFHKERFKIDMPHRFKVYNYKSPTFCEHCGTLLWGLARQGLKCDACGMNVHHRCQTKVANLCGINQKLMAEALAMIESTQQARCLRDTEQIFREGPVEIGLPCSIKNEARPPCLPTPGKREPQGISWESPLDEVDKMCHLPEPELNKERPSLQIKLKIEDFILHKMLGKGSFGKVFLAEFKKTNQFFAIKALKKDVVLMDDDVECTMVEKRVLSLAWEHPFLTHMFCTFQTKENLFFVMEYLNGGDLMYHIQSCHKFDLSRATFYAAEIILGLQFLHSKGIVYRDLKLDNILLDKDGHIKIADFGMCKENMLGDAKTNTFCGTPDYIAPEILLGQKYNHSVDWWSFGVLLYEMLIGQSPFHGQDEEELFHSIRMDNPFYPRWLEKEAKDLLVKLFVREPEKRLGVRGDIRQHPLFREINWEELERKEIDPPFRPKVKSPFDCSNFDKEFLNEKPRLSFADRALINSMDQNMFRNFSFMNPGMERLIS
Description: as §1

PKCι(h) = PKCι(h) (Homo sapiens, UniProt P41743)
Description: as §1

PKCμ(h) = PKCμ(h) (Homo sapiens, UniProt Q15139)
Description: as §1

PKG1α(h) = PKG1α(h) (Homo sapiens, UniProt Q13976)
Description: as §1

Ret(h) = molecular target: T8, Ret(h) (Homo sapiens, UniProt P07949)
T8 construct: purchased Millipore (KinaseProfiler service)
Description: as §1

Ron(h) = molecular target: T9, Ron(h) (Homo sapiens, UniProt Q04912)
T9 construct: purchased Millipore (KinaseProfiler service)
Description: as §1

Rsk1(h) = molecular target: T10, Rsk1(h) (Homo sapiens, UniProt Q15418)
T10 construct: purchased Millipore (KinaseProfiler service)
Description: as §1

Rsk2(h) = molecular target: T11, Rsk2(h) (Homo sapiens, UniProt P51812)
T11 construct: purchased Millipore (KinaseProfiler service)
Description: as §1

SAPK2a(h) = molecular target: T12, SAPK2a(h) (Homo sapiens, UniProt Q16539)
T12 construct: purchased Millipore (KinaseProfiler service)
T12 sequence (Q16539 whole entry): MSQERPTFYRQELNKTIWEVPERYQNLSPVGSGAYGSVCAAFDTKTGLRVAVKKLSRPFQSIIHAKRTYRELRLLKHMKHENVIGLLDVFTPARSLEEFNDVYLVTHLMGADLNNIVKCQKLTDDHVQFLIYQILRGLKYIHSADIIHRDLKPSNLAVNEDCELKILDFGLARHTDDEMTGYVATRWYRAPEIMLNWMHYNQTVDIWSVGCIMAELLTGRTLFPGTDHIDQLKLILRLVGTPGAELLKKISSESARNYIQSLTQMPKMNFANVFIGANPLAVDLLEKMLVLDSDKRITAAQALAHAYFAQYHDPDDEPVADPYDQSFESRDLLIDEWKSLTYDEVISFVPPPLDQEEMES
Description: as §1

SGK2(h) = molecular target: T13, SGK2(h) (Homo sapiens, UniProt Q9HBY8)
T13 construct: purchased Millipore (KinaseProfiler service)
Description: as §1

SRPK2(h) = molecular target: T14, SRPK2(h) (Homo sapiens, UniProt P78362)
T14 construct: purchased Millipore (KinaseProfiler service)
Description: as §1

Tie2(h) = molecular target: T15, Tie2(h) (Homo sapiens, UniProt Q02763)
T15 construct: purchased Millipore (KinaseProfiler service)
Description: as §1

TrkB(h) = molecular target: T16, TrkB(h) (Homo sapiens, UniProt Q16620)
T16 construct: purchased Millipore (KinaseProfiler service)
T16 sequence (Q16620 32-822): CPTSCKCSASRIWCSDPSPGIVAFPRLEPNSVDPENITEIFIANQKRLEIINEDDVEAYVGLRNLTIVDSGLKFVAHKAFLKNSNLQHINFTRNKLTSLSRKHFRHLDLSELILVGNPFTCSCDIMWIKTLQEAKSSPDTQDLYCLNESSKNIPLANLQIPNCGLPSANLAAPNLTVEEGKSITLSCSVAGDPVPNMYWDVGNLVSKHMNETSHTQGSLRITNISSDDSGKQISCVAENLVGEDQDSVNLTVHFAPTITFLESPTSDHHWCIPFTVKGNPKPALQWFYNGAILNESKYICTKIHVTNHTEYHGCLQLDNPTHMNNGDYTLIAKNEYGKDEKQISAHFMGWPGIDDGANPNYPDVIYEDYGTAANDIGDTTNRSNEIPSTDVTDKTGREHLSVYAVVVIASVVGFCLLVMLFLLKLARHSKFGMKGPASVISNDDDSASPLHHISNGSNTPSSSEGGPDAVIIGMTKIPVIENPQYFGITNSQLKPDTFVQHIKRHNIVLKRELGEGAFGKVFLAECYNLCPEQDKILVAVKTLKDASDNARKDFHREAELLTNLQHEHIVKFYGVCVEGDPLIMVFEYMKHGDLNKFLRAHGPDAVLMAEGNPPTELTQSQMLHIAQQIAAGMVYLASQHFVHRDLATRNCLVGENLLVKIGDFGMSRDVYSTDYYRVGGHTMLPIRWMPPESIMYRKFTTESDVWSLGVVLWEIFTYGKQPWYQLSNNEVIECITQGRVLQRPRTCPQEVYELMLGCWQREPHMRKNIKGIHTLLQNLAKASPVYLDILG
Description: as §1

Activity % (AMPKα1(h)): 17%
Activity % (Ab1(h)): −9%
Activity % (Bmx(h)): 1%
Activity % (CDK2/cyclinA(h)): 97%
Activity % (CHK2(R145W)(h)): 91%
Activity % (CK1γ2(h)): 134%
Activity % (CK1γ3(h)): 117%
Activity % (CLK2(h)): 90%
Activity % (CLK3(h)): 87%
Activity % (CaMKI(h)): 90%
Activity % (CaMKIIγ(h)): 87%
Activity % (DAPK2(h)): 106%
Activity % (EphA7(h)): 54%
Activity % (EphA8(h)): 16%
Activity % (ErbB4(h)): 90%
Activity % (FGFR2(N549H)(h)): −1%
Activity % (Fer(h)): 69%
Activity % (Fes(h)): 32%
Activity % (Fms(Y969C)(h)): 4%
Activity % (HIPK2(h)): 101%
Activity % (JAK3(h)): 3%
Activity % (MEK1(h)): 63%
Activity % (MINK(h)): 75%
Activity % (PAK4(h)): 70%
Activity % (PDGFRα(h)): 67%
Activity % (PKCδ(h)): 90%
Activity % (PKCζ(h)): 109%
Activity % (PKCθ(h)): 109%
Activity % (PKCι(h)): 105%
Activity % (PKCμ(h)): 95%
Activity % (PKG1α(h)): 100%
Activity % (Ret(h)): −1%
Activity % (Ron(h)): 34%
Activity % (Rsk1(h)): 84%
Activity % (Rsk2(h)): 65%
Activity % (SAPK2a(h)): 79%
Activity % (SGK2(h)): 107%
Activity % (SRPK2(h)): 99%
Activity % (Tie2(h)): 0%
Activity % (TrkB(h)): 1%
Structure (SMILES): Cc1cc2c(F)c(Oc3nc(Nc4cc(C5CC5)[nH]n4)cc(N4CCN(C)CC4)n3)cc(F)c2[nH]1 [NTW-3475]
